Data taken from patent publication US20080311168A1, “PROCESS FOR COMBATING ACARIDS” (RHODIA CHIMIE, priority 2002, published 2008).

How the values were obtained:
[1] = test system: dust mites; test: Curative test: ZnS powder deposited on fitted carpet holding an existing acarid population, Example 14; assay type: in vivo, dermatophagoides pteronyssinus
Description: (§1) The object of this study is to evaluate the effectiveness of a powder intended to be applied to floor coverings in a curative and/or preventive treatment for combating populations of dust mites.
(§2) This characterization is carried out in the same laboratory which carried out the test of Example 12. The source of the acarids is identical.
(§3) The test comprises two parts: • a curative test by deposition of the product on an existing population of acarids, • a preventive test with deposition of acarids on surfaces of fitted carpets treated beforehand with the product.
(§4) Monitoring is carried out over a period of at least two cycles, i.e. 6 weeks, and in comparison with a population not subjected to the product.
(§5) The experimental method is derived from the experimental context of the AFNOR standard NF G 39-011.
(§6) The experimental unit is composed of a chamber with a diameter of 8 cm which is escapeproof with regard to the acarids but which allows ventilation and in which are found: • a piece of short-pile polyamide fitted carpet as floor • 5 g of nutrient medium (dust+skin scales) • the corresponding dose of the test powder.
• approximately 50 active acarids are placed on the fitted carpets • the test product is mixed with the food and sprinkled with a salt cellar over the fitted carpet containing the acarids • 4 repetitions are carried out on the same day as experimental factor, including for the control batches composed of the same device but without the product • the product is applied at a rate of 160 mg/m^2 • 2 counts of the populations of acarids are carried out after incubating for 4 and 6 weeks under optimum development conditions.
(§7) • the product is mixed with the food and sprinkled with a salt cellar over pieces of acarid-free fitted carpets • one month later, approximately 50 active acarids are placed on the treated fitted carpets • 4 repetitions are carried out as experimental factor, including for the control batches composed of the same device but without the product (same control as for the curative test) • the product is applied at the rate of 10, 40, 80 and 160 mg/m^2 • counting of the population of acarids is carried out after incubating for 6 weeks under optimum development conditions. The monitorings consist in counting the number of living acarids after the time period of 4 or 6 weeks of incubation. The method of counting the acarids and the calculation of the coefficient of regulation of the population of acarids (CP) are identical to Example 12.
(§8) The population counts on controlled and treated are all carried out at the same number of weeks.

[2] = test system: dust mites; test: Preventive test: acarids deposited on fitted carpet treated beforehand with ZnS powder, Example 14; assay type: in vivo, dermatophagoides pteronyssinus
Description: as §1, §2, §3, §4, §5, §6, §7, §8

[3] = test system: dust mites (dermatophagoides pteronyssinus); test: Regulation of a dust mite population by powders (derived from AFNOR NF G 39-011), Example 12; assay type: in vivo; details: for Number of living acarids after 6 weeks, Mean: 5 g test powder + 5 g nutrient medium (food 1/NF G 39-011), 50 acarids placed, 4 repetitions; for CP (coefficient of regulation of the population of acarids), Mean: 6 weeks, versus sample without additive, 5 g test powder + 5 g nutrient medium, 0 = ineffective, 100 = eradication
Description: This characterization is carried out by a laboratory registered by the French Ministry of Agriculture, Fisheries and Food. The object is to evaluate the effectiveness of PA powders, to which ZnS may or may not have been added, on the regulation of the change in a population of dust mites (dermatophagoides pteronyssinus). Monitoring is carried out over two development cycles of the acarids, i.e. 6 weeks.
The acarids used originate from a laboratory strain raised on a substrate composed of a 50/50 (w/w) mixture of wheatgerm and of brewers yeast as specks graded by sieving (fragments of less than 1 mm). The temperature is between 23 and 25° C. and the relative humidity is maintained at 75% by the presence of a saturated ammonium sulphate solution. The screen is kept in darkness.
The screen is supplied by the Laboratoire des Insectes et Acariens des Denrees [Laboratory of the Insects and Acarids of Foodstuff] of the Institut National de Recherches Agronomiques (INRA) [National Institute of Agronomic Research] at Bordeaux, according to the AFNOR standard NF G 39-011.
The method is derived directly from the AFNOR standard NF G 39-011, with the following variations: • the experimental unit is composed of a chamber with a diameter of 8 cm which is escapeproof with regard to acarids but which allows ventilation and in which are found: • 5 g of nutrient medium (food 1/NF G 39-011 appendix) • 5 g of test powder, carpeting the bottom of the chamber • the study is carried out by placing 50 acarids in these devices • 4 repetitions are carried out on the same day per experimental factor, including for the control batches composed of the same device but without the addition of the powder. The result is expressed in the form of a mean and standard deviation with regard to these 4 samples.
The monitoring consists in counting the number of living acarids after the time period of 6 weeks. As direct counting is rendered impossible by the structure of the substrate, extraction by heat according to the recommendations of the AFNOR standard NF G 39-011 is used.
The criterion of effectiveness of an additive is then defined as the coefficient of regulation of the population of acarids (CP), i.e.:
The population counts are all carried out at 6 weeks.

## [S-2].[Zn+2] [ZnS 1, ZnS]
[1]; 160 mg/m^2, 4 weeks incubation
  Number of living acarids after 4 weeks, Mean: 148
[1]; 160 mg/m^2, 4 weeks, versus untreated carpet
  CP 4 weeks, Mean: 42
[1]; 160 mg/m^2, 6 weeks incubation
  Number of living acarids after 6 weeks, Mean: 284
[1]; 160 mg/m^2, 6 weeks, versus untreated carpet
  CP 6 weeks, Mean: 69
[2]; 10 mg/m^2, 4 weeks
  CP 4 weeks, Mean: 6
[2]; 10 mg/m^2, 6 weeks
  CP 6 weeks, Mean: 6
  Number of living acarids after 6 weeks, Mean: 849
[2]; 10 mg/m^2, acarids placed one month after treatment, 4 weeks
  Number of living acarids after 4 weeks, Mean: 242
[2]; 40 mg/m^2, 4 weeks
  CP 4 weeks, Mean: 40
  Number of living acarids after 4 weeks, Mean: 154
[2]; 40 mg/m^2, 6 weeks
  CP 6 weeks, Mean: 60
  Number of living acarids after 6 weeks, Mean: 361
[2]; 80 mg/m^2, 4 weeks
  CP 4 weeks, Mean: 45
  Number of living acarids after 4 weeks, Mean: 142
[2]; 80 mg/m^2, 6 weeks
  CP 6 weeks, Mean: 65
  Number of living acarids after 6 weeks, Mean: 315
[2]; 160 mg/m^2, 4 weeks
  CP 4 weeks, Mean: 52
  Number of living acarids after 4 weeks, Mean: 123
[2]; 160 mg/m^2, 6 weeks
  CP 6 weeks, Mean: 68
  Number of living acarids after 6 weeks, Mean: 290
[3]
  Number of living acarids after 6 weeks, Mean: 318
  CP (coefficient of regulation of the population of acarids), Mean: 63

## [S-2].[Zn+2] [ZnS 2, ZnS]
[3]
  Number of living acarids after 6 weeks, Mean: 305
  CP (coefficient of regulation of the population of acarids), Mean: 65
